According to EPA's CvTdb concentration-time database:

What was measured:
Rat [1] = assay: concentration in plasma after dosing
Rat [2] = assay: concentration in brain after dosing; details: dosed: Fluorotelomer alcohol 8+2, oral
Rat [3] = assay: concentration in kidney after dosing; details: 6 h; dosed: Fluorotelomer alcohol 8+2; 24 mg/kg; oral; Male; Harlan Sprague Dawley
Rat [4] = assay: concentration in liver after dosing; details: dosed: Fluorotelomer alcohol 8+2, oral
Rat [5] = assay: concentration in kidney after dosing; details: dosed: Fluorotelomer alcohol 8+2, oral
Rat [6] = assay: concentration in brain after dosing; details: 3 h; dosed: Fluorotelomer alcohol 8+2; 80 mg/kg; oral; Female; Harlan Sprague Dawley
Rat [7] = assay: concentration in plasma after dosing; details: 6 h; dosed: Di-n-butyl phthalate; 100 mg/kg; oral; Male; Sprague-Dawley

OCCC(F)(F)C(F)(F)C(F)(F)C(F)(F)C(F)(F)C(F)(F)C(F)(F)C(F)(F)F [Fluorotelomer alcohol 8+2]
concentration in plasma [ng/mL], Rat [1]
Details | 0.25 h | 0.5 h | 0.75 h | 1 h | 3 h | 5 min | 6 h | 9 h | 12 h | 24 h
dosed: Fluorotelomer alcohol 8+2, 12 mg/kg, iv, Male, F344 | 1590 | 1260 | 422 | 625 | 118 | 3550 | 48.7 | 23.8 | 5.59 | 4.63
dosed: Fluorotelomer alcohol 8+2, 12 mg/kg, oral, Male, Harlan Sprague Dawley | 82.2 | 215 | 348 | 264 | 84.4 | 2.61 | 37.1 | 11.6 | 4.01 | 1.18
dosed: Fluorotelomer alcohol 8+2, 24 mg/kg, oral, Male, Harlan Sprague Dawley | 110 | – | – | – | – | 6.33 | – | 40.2 | – | 2.62
dosed: Fluorotelomer alcohol 8+2, 40 mg/kg, iv, Female, Harlan Sprague-Dawley | – | 8470 | 2350 | 2720 | – | – | – | 76.6 | 34.6 | 23.2
dosed: Fluorotelomer alcohol 8+2, 40 mg/kg, iv, Male, F344 | 13000 | 5070 | – | – | 378 | – | 254 | 47 | – | –

Details | concentration in brain, Rat [2] [ng/g] | concentration in kidney, Rat [5] [ng/g] | concentration in liver, Rat [4] [ng/g]
0.5 h, 24 mg/kg, Male, Harlan Sprague Dawley | 4540 | 3380 | 17700
0.5 h, 24 mg/kg, Male, Harlan Sprague Dawley - this seems too small | 978 | 1060 | 2190
0.5 h, 80 mg/kg, Female, Harlan Sprague Dawley | 5440 | 2910 | 11600
1 h, 24 mg/kg, Male, Harlan Sprague Dawley | 2450 | 1560 | 3900
1 h, 80 mg/kg, Female, Harlan Sprague Dawley | 9090 | 6420 | 12500
3 h, 24 mg/kg, Male, Harlan Sprague Dawley | 2300 | 1070 | 2230
3 h, 80 mg/kg, Female, Harlan Sprague Dawley | 8400 | 3900 | 9320
6 h, 24 mg/kg, Male, Harlan Sprague Dawley | 663 | 460 | 2050
6 h, 80 mg/kg, Female, Harlan Sprague Dawley | 2060 | 1450 | 3970
12 h, 24 mg/kg, Male, Harlan Sprague Dawley | 95.5 | 185 | 604
12 h, 80 mg/kg, Female, Harlan Sprague Dawley | 679 | 373 | 1610

Details | concentration in brain [ng/g] | concentration in kidney [ng/g]
Rat [3] | – | 366
Rat [6] | 7770 | –

CCCCOC(=O)c1ccccc1C(=O)O [Mono-n-butyl phthalate]
Rat [1], dosed: Di-n-butyl phthalate, Male, Sprague-Dawley
Details | concentration in plasma [ng/mL]
0.25 h, 100 mg/kg, oral | 26200
0.5 h, 50 mg/kg, oral | 16600
0.5 h, 100 mg/kg, oral | 40300
1 h, 20 mg/kg, iv | 3060
1 h, 50 mg/kg, oral | 5560
1 h, 100 mg/kg, oral | 23500
1.5 h, 20 mg/kg, iv | 517
2 h, 20 mg/kg, iv | 945
2 h, 50 mg/kg, oral | 2700
2 h, 100 mg/kg, oral | 9480
2 h, 200 mg/kg, oral | 114000
3 h, 20 mg/kg, iv | 1380
3 h, 50 mg/kg, oral | 2390
3 h, 100 mg/kg, oral | 6880
4 h, 20 mg/kg, iv | 667
4 h, 100 mg/kg, oral | 10000
5 h, 20 mg/kg, iv | 1120
5 min, 20 mg/kg, iv | 29400
5 min, 50 mg/kg, oral | 3240
5 min, 100 mg/kg, oral | 6120
6 h, 20 mg/kg, iv | 627
6 h, 50 mg/kg, oral | 4090
6 h, 100 mg/kg, oral | 7390
8 h, 20 mg/kg, iv | 522
10 h, 50 mg/kg, oral | 506
10 h, 100 mg/kg, oral | 3970
10 min, 20 mg/kg, iv | 31300
10 min, 50 mg/kg, oral | 20500
15 h, 50 mg/kg, oral | 629
15 h, 100 mg/kg, oral | 538
20 h, 100 mg/kg, oral | 492
20 h, 200 mg/kg, oral | 1820
20 min, 20 mg/kg, iv | 24200
20 min, 50 mg/kg, oral | 13800
24 h, 100 mg/kg, oral | 517
40 min, 20 mg/kg, iv | 5840
40 min, 50 mg/kg, oral | 12000

Details | concentration in plasma [ng/mL]
Rat [7] | 4950
